Read-outs that look alike come from different tables or passages of the source.
What was measured:
[1] = Cytotoxicity test, alamarBlue assay; assay type: cell-based, murine; conditions: mouse, 37 °C, mean ± SD
Procedure: (§1) The amoeba strain used in this study was the type strain: Acanthamoeba castellanii Neff (ATCC 30010) which was axenically grown in PYG medium (0.75% (w/v) proteose peptone, 0.75% (w/v) yeast extract and 1.5% (w/v) glucose) containing 40 µg/mL of gentamicin (Biochrom AG, Cultek, Granollers, Barcelona, Spain). The murine macrophages J774A.1 (ATCC TIB-67) cell line was cultured in RPMI 1640 medium supplemented with 10% fetal bovine serum at 37 °C and 5% CO2 atmosphere, was used for the cytotoxicity assays. Successively, the evaluated molecules were also tested against two clinical isolates, Acanthamoeba griffini, genotype T3 obtained in a previous study, and Acanthamoeba polyphaga genotype T4 ATCC 30461, both axenically grown in the same medium as A. castellanii Neff.
The cytotoxicity effect of active molecules was evaluated in murine macrophage J774A.1 cell line (ATCC # TIB-67) following the same protocol described above for Acanthamoeba trophozoites. Then, plates containing alamarBlue® were incubated for 24 h at 37 °C in presence of CO2 at 5%.
(§2) The percentage of the growth inhibition, 50% inhibitory concentration (IC50 or CC50), was calculated by nonlinear regression analysis with 95% confidence limits using Sigma Plot 12.0 statistical analysis software (Systat Software). All experiments were performed three times, and the mean values were also calculated. A paired two-tailed t-test was used for analysis of the data. Values of p < 0.05 were considered significant.

[2] = system: A. polyphaga; experiment: Anti-Acanthamoeba activity on trophozoites, alamarBlue colorimetric assay; assay type: cell-based; conditions: 96 h, read-out: IC50 A. polyphaga
Procedure: as §1
(§3) To evaluate the biological activity of the fractions and molecules, the anti-Acanthamoeba experiments were carried out using the alamarBlue® colorimetric assay, as it was previously described. Briefly, Acanthamoeba strain was seeded in triplicate on 96-well microtiter plates (ThermoFisher™, Waltham, MA, USA) with 50 µL from a stock solution of 5 × 10^4 cells/mL and 50 µL of serial dilutions of the evaluated molecules in each well (1% DMSO was used to dissolve the highest dose of the compounds with no effects on the parasites). Two reference treatments such as chlorhexidine (chlorhexidine digluconate; Alfa Aesar) and voriconazole (Sigma), were used as positive controls. Finally, the alamarBlue® Reagent (Life Technologies, Madrid, Spain) was placed into each well at an amount equal to 10% of the final volume. Plates were incubated for 96 h at 26 °C with a slight agitation until their measurement in the EnSpire® Multimode Plate Reader (Perkin Elmer, Madrid, Spain) using fluorescence, at 570/585 nm.
as §2

[3] = system: A. griffini; experiment: as above; assay type: cell-based; conditions: 96 h, read-out: IC50 A. griffini
Procedure: as §1, §3, §2

[4] = system: A. castellanii Neff; experiment: as above; assay type: cell-based, Acanthamoeba castellanii Neff; conditions: for IC50: 96 h, read-out: IC50 A. castellanii Neff
Procedure: as §1, §3, §2

[5] = system: A. castellanii Neff cysts; experiment: In vitro activity against cysts (cysticidal assay, alamarBlue); assay type: cell-based, Acanthamoeba castellanii Neff; conditions: mature cysts
Procedure: On the other side, cysticidal activity of 7OSTS (2) was determined also using the alamarBlue™ reagent and confirmed visually by inverted microscopy. Cysts of A. castellaniii Neff were prepared as previously described. First of all, trophozoites were transferred from PYG medium based cultures (trophozoite medium) to Neff’s encystment medium (NEM; 0.1 M KCl, 8 mM MgSO4·7H2O, 0.4 mM CaCl2·2H2O, 1 mM NaHCO3, 20 mM ammediol [2-amino-2-methyl-1,3-propanediol; Sigma Aldrich Chemistry Ltd., Madrid, Spain], pH 8.8, at 25 °C) and were cultured in this medium with gently shaking for a week in order to obtain mature cysts. In order to carry out the cysticidal assay, mature cysts were harvested and washed twice with PYG medium. Serial dilutions of 7OSTS (2) were made in PYG and place onto sterile 96-well microtiter plates. 5·10^4 mature cysts of Acanthamoeba/mL were added to the wells with 50 µL of 7OSTS (2) dilutions. After 7 days of incubation, the plate was centrifuged at 3000 rpm for 10 min. The supernatant was removed and replaced with 100 µL of fresh PYG medium in each well. Finally, 10 μL of the alamarBlue® Reagent was placed into each well. The plates were then incubated for 144 h at 28 °C and the emitted fluorescence was measured with the EnSpire® Multimode Plate Reader (Perkin Elmer, Madrid, Spain) using fluorescence, at 570/585 nm. […]

[6] = system: A. castellanii Neff; experiment: Measurement of ATP levels (CellTiter-Glo); assay type: cell-based, Acanthamoeba castellanii Neff; conditions: IC90, 24 h
Procedure: An appropriate level of ATP is necessary to maintain the cell metabolism. The effect of the drug on the ATP production was evaluated by incubating (10^5) of cells/mL with the previously calculated IC90 of 7OSTS (2) using the CellTiter-Glo Luminescent Cell Viability Assay. The luminescence of each assay was measured on the EnSpire®.

[7] = system: A. castellanii Neff; experiment: Plasma membrane permeability (SYTOX Green); assay type: cell-based, Acanthamoeba castellanii Neff; conditions: IC90, 24 h
Procedure: In order to detect alterations of the membrane permeability in treated cells, the SYTOX Green (ThermoFischer^TM) assay was performed. Briefly, 10^5 trophozoite were washed and incubated in saline solution with SYTOX Green at a final concentration of 1 μM for 15 min in darkness. After that, IC90 of 7OSTS (2) was added to the cells and incubated for 24 h. Cells were observed and pictures were taken on the EVOS FL inverted microscope.

[8] = system: A. castellanii Neff; experiment: Analysis of mitochondrial membrane potential (JC-1); assay type: cell-based, Acanthamoeba castellanii Neff; conditions: IC90, 24 h
Procedure: The use of JC-1 mitochondrial membrane potential detection kit (Cayman Chemical) it is possible to detect the collapse of an electrochemical gradient across the mitochondrial membrane during apoptosis process. 10^5 amoebas/mL were treated with IC90 of 7OSTS (2) for 24 h, the cells were centrifuged (1000 rpm × 10 min) and suspended in JC-1 buffer. Images were taken on the EVOS FL inverted microscope. The staining pattern allows the identification of two groups in a cellular population: live cells will show only red fluorescence, but cells with low mitochondrial potential (undergoing PCD) will show a higher level of green fluorescence.

[9] = system: A. castellanii Neff; experiment: Double-stain assay (Hoechst 33342/PI) for programmed cell death determination; assay type: cell-based, Acanthamoeba castellanii Neff; conditions: IC90 concentration, 24 h
Procedure: 10^5 amoebas/well were incubated in a 24-well plate with the previously calculated IC90 of 7OSTS for 24 h. A double-stain apoptosis detection kit (Hoechst 33342/PI) (ThermoFisher™, Waltham, MA, USA) was used to carry out the experiment following the manufacturer’s recommendations. The images were obtained using the EVOS FL Cell Imaging System AMF4300, Life Technologies, USA. The double-staining pattern allows the identification of live cells with low level of fluorescence, cells undergoing PCD with a higher level of blue fluorescence (as chromatin condenses), and dead cells which will show low-blue and high-red fluorescence (as the propidium iodide stain enters the nucleus of dead cells).

[10] = biological target: cyclin-dependent kinase 4 (CDK4); design: method as in PMID 19132059, PMID 14552791; conditions: cited from earlier work
[11] = biological target: protein kinase A (PKA); conditions: cited from earlier work
[12] = biological target: protein kinase C (PKC); conditions: cited from earlier work
[13] = biological target: calcium/calmodulin-dependent protein kinase II (CaMKII); design: method as in PMID 19132059, PMID 14552791; conditions: cited from earlier work
[14] = system: human lung, colon, and nasopharyngeal carcinoma cell lines; design: method as in PMID 3112080; conditions: read-out: IC50 cytotoxic activity; cited from earlier work
[15] = read-out: Macrophage J774A.1 CC50

Compound | CC50 at 24 h ([1]; J774A.1 macrophage cells) [µM] | IC50 ([2]; trophozoites, 26 °C, mean ± SD) [µM] | IC50 ([3]; trophozoites, 26 °C, mean ± SD) [µM] | IC50 ([4]; trophozoites, 26 °C, mean ± SD) [µM] | other results
COC1C(=O)CC2OC1(C)n1c3ccccc3c3c4c(c5c6ccccc6n2c5c31)C(=O)NC4 (centres unmarked) [4’D4’OSTS (3), 4′-demethylamino-4′-oxostaurosporine] | > 40 | > 40 | 23.9 ± 0.55 | 7.53 ± 0.73 | 
CNC1CC2OC(C)(C1OC)n1c3ccccc3c3c4c(c5c6ccccc6n2c5c31)C(=O)NC4=O (centres unmarked) [7OSTS (2), 7-oxostaurosporine] |  |  |  |  | CC50 at 24 h [1, 15]: 5.2 ± 1.75 µM; IC50 ([5]; Acanthamoeba castellanii): 0.92 ± 0.33 µM; Cyst viability ([5]; incubation up to 144 h): non-viable cysts were observed; ATP level compared to the negative control [6]: 45%; Plasma membrane permeability [7]: plasmatic membrane damage; IC50 [2]: 5.51 ± 0.09 µM; IC50 [3]: 0.96 ± 0.19 µM; IC50 [4]: 0.83 ± 0.09 µM; IC90 ([4]; read-out: IC90 concentration): 2.91 ± 0.67 µM; Mitochondrial membrane potential [8]: decrease of the mitochondrial membrane potential; Chromatin condensation [9]: induces chromatin condensation
O=C1NC(=O)c2c1c1c3ccccc3[nH]c1c1[nH]c3ccccc3c21 [Arcyriaflavin A (7), arcyriaflavin A] |  | 7.59 ± 0.73 | 7.53 ± 1.11 | 7.32 ± 0.45 | IC50 [10]: 0.14 µM; IC50 [11]: > 2 µM; IC50 [12]: > 100 µM; IC50 [13]: 0.025 µM
[H]/N=C(\N/C(=N/[H])NCCCCCCNC(=N)NC(=N)Nc1ccc(Cl)cc1)Nc1ccc(Cl)cc1 [Chlorhexidine, chlorhexidine] | 7.4 ± 0.39 | 4.76 ± 0.08 |  |  | 
COC1=C(C)O[C@@H]2C[C@@]1(OC)n1c3ccccc3c3c4c(c5c6ccccc6n2c5c31)C(=O)NC4 [ICZ B (4), streptocarbazole B] | > 40 | > 40 | 14.5 ± 0.38 | 6.83 ± 2.6 | 
O=C1NCc2c1c1c3ccccc3[nH]c1c1[nH]c3ccccc3c21 [K252c (6), K252c] |  | 5.59 ± 0.34 | 2.25 ± 0.32 | 6.17 ± 0.73 | IC50 [11]: 25.7 µM
CO[C@H]1[C@H](O)[C@@H](O)[C@H](n2c3c(Cl)cccc3c3c4c(c5c6cccc(Cl)c6[nH]c5c32)C(=O)NC4=O)O[C@@H]1CO [Rebeccamycin (5), rebeccamycin] |  | 7.47 ± 0.61 | 5.02 ± 0.18 | 5.37 ± 0.23 | IC50 [14]: 0.4 to 98 µM
CN[C@@H]1C[C@H]2O[C@@](C)([C@@H]1OC)n1c3ccccc3c3c4c(c5c6ccccc6n2c5c31)C(=O)NC4 [STS (1), staurosporine] |  |  |  |  | CC50 at 24 h [1, 15]: 8.74 ± 0.72 µM
C[C@@H](c1ncncc1F)[C@](O)(Cn1cncn1)c1ccc(F)cc1F [Voriconazole, voriconazole] | 7.56 ± 0.77 | 10.1 ± 2.21 | 0.1 ± 0.02 | 0.94 ± 0.29 | 

Source: publication PMC6836125, “Antiamoebic Activities of Indolocarbazole Metabolites Isolated from Streptomyces sanyensis Cultures” (Marine Drugs, 2019)
